Reference: patent publication US20240279304A1, “DSG2 COMPOSITIONS AND METHODS” (Arvada Therapeutics, Inc., priority 2021, published 2024)
“Also recorded” adds a separate entry of the source.

Key:
[1] = tested on: anti-DSG2 antibody; experiment: anti-DSG2 antibody meso scale discovery (MSD) assay, blocking of anti-DSG2 antibody; type: binding; settings: for % inhibition: fraction C (table title)
Protocol: (§1) The DSG2 fusion polypeptides were tested for the ability to block anti-DSG2 antibody by an anti-DSG2 antibody meso scale discovery (MSD) assay. […] The DSG2 fusion polypeptides were subjected to size exclusion chromatography and different elution fractions were examined. […] As shown in Table 7 and FIG. 1B, FIG. 1C, and FIG. 1D, enriching for fraction C improved the ability of the DSG2 fusion polypeptides to block ARVC patient serum.

[2] = tested on: ARVC serum (anti-DSG2 antibodies in serum obtained from ARVC patients); experiment: anti-DSG2 antibody MSD assay, blocking of ARVC patient serum; type: binding, human; design: % inhibition: concentration or dose not given beside the values; settings: for % inhibition: fraction C (table title)
Protocol: as §1
ARVC diagnosis is based on complex tool known as Task Force Criteria, which can lead to varying levels of conviction about ARVC diagnosis. The utility of DSG2 antibodies as an indicator of ARVC disease state and severity was explored. Approximately 50 cc serum was collected from diagnosed ARVC patients. A total of 10 ARVC patients and 5 healthy controls were used for the analysis. ARVC serum samples were separated into more robust diagnosis and less robust diagnosis, based on available data in the patient medical records and anti-DSG2 antibody levels were compared using an anti-DSG2 antibody meso scale discovery (MSD)-based assay.

[3] = tested on: human iPSC-derived cardiomyocytes; experiment: CiPA multielectrode array (MEA) assay, cell index; type: cell-based
Protocol: To determine the effect of anti-DSG2 antibodies in cardiomyocytes, the cardiac in vitro proarrhythmia (CiPA) assay was performed (Sager et al. Am Heart J 2014; 167:292-300; the contents of which are herein incorporated by reference in its entirety). CiPA is envisioned to consist of four components: (1) an evaluation of the effects of test agents on cardiac ion channel assays; (2) in silico modeling of the cardiac action potential based on the ion channel results to integrate the data with cardiac function; (3) experimental measurement of test agent effects in human ventricular myocytes to confirm the modeling result; and (4) scoring the results. The multielectrode array (MEA) assay is a component of CiPA which uses human induced pluripotent stem cell (iPSC)-derived cardiomyocytes to evaluate two-dimensional excitation propagation by recording spontaneous ECG-like field potentials. The sodium spike quantified below is a measurement of the specific sodium channel current in the cardiomyocyte and is also described in Blinova K, et al. Cell Rep. 2018 Sep. 25; 24(13):3582-3592 (the contents of which are herein incorporated by reference in its entirety). CiPA is considered a clinically validated cardiomyocyte-based assay by the FDA and the EMA. […] The parameters evaluated include measuring a change in the spike in the component of electrical signal propagation (e.g. sodium spike) and cell index—a function of cell impedance and cell number. Changes in sodium spike may be indicative of arrhythmia and a change in cell index (CI) may be indicative of changes to cell connectivity.
Cell index is inversely related the cell layer's conductivity to electrical current. Increased conductivity across the cell layer, may indicate that there are more gaps in the cell layer, implying that the cells are less well-adhered to each other. Thus, increased conductivity across the cell layer, may result in lower cell index. […] The concentration of anti-DSG2 antibodies varied from 0.00005 μg/mL to 5 μg/mL. […] The concentration of lidocaine varied from 3 μM to 100 μM. […] The concentration of anti-DSG2 antibodies varied from 0.00005 μg/mL to 5 μg/mL.

[4] = tested on: human iPSC cardiomyocytes; experiment: CiPA multielectrode array (MEA) assay, sodium spike; type: cell-based; settings: 1.1 μg/mL DSG2FP #1; anti-DSG2 antibodies 0.5 μg/mL
Protocol: To determine the effect of anti-DSG2 antibodies in cardiomyocytes, the cardiac in vitro proarrhythmia (CiPA) assay was performed (Sager et al. Am Heart J 2014; 167:292-300; the contents of which are herein incorporated by reference in its entirety). CiPA is envisioned to consist of four components: (1) an evaluation of the effects of test agents on cardiac ion channel assays; (2) in silico modeling of the cardiac action potential based on the ion channel results to integrate the data with cardiac function; (3) experimental measurement of test agent effects in human ventricular myocytes to confirm the modeling result; and (4) scoring the results. […] The sodium spike quantified below is a measurement of the specific sodium channel current in the cardiomyocyte and is also described in Blinova K, et al. Cell Rep. […] The parameters evaluated include measuring a change in the spike in the component of electrical signal propagation (e.g. sodium spike) and cell index—a function of cell impedance and cell number. […]
Commercially available anti-DSG2 antibodies were tested in the cardiomyocyte CiPA assay. […] The voltage (μV) is measured at time intervals of 0, 1 hour, 12 hours, 24 hours, 48 hours, 72 hours, and 96 hours. […]

Substance: DSG2FP#1: R&D Systems DSG2 extracellular domain (49-608 of SEQ ID NO: 30); linker IEGRMD; amino acids 100-330 of IgG1
- ability to bind to and block anti-DSG2 antibody (in words) [1]: able to bind and block anti-DSG2 antibody
- % inhibition ([1]; sample: Anti-DSG2 antibody (200 ng/mL) control): 63.8%
- % inhibition ([1]; sample: Anti-DSG2 antibody (1000 ng/mL) control): 88.4%
- % inhibition ([1]; sample: no antibody control): 4.8%
- ability to bind and block ARVC serum (in words) [2]: able to bind and block anti-DSG2 antibody as well as serum obtained from ARVC patients
- blocking of assay signal from ARVC patient serum samples with strong clinical data (in words) ([2]; Example 3, competing DSG2 polypeptide added): could also be blocked
- % inhibition ([2]; sample: ARVC serum 1): 96.7%
- % inhibition ([2]; sample: ARVC serum 2): 82.9%
- % inhibition ([2]; sample: ARVC serum 3): 95.8%
- % inhibition ([2]; sample: ARVC serum 4): 95.7%
- % inhibition ([2]; sample: ARVC serum 5): 93.1%
- reversal of effects of anti-DSG2 antibodies on cell index (in words) [3]: reversed; also recorded: completely blocks the effect of the anti-DSG2 antibodies
- Cell Index (+/- SEM) ([3]; added with Anti-DSG2 antibody (0.00005 μg/mL)): 22.4 (1.9)
- Cell Index (+/- SEM) ([3]; added with Anti-DSG2 antibody (0.0005 μg/mL)): 22.4 (1.1)
- Cell Index (+/- SEM) ([3]; added with Anti-DSG2 antibody (0.005 μg/mL)): 20.4 (0.5)
- Cell Index (+/- SEM) ([3]; added with Anti-DSG2 antibody (0.05 μg/mL)): 21.6 (0.4)
- Cell Index (+/- SEM) ([3]; added with Anti-DSG2 antibody (0.5 μg/mL)): 22.0 (0.8)
- Cell Index (+/- SEM) ([3]; added with Anti-DSG2 antibody (5 μg/mL)): 24.1 (0.5)
- Cell Index (+/- SEM) ([3]; added with Anti-VCAM1 antibody (0.00005 μg/mL)): 23.2 (0.7)
- Cell Index (+/- SEM) ([3]; added with Anti-VCAM1 antibody (0.0005 μg/mL)): 22.0 (0.5)
- Cell Index (+/- SEM) ([3]; added with Anti-VCAM1 antibody (0.005 μg/mL)): 21.0 (0.5)
- Cell Index (+/- SEM) ([3]; added with Anti-VCAM1 antibody (0.05 μg/mL)): 21.0 (0.4)
- Cell Index (+/- SEM) ([3]; added with Anti-VCAM1 antibody (0.5 μg/mL)): 21.8 (0.5)
- Cell Index (+/- SEM) ([3]; added with Anti-VCAM1 antibody (5 μg/mL)): 24.6 (0.5)
- Cell Index (+/- SEM) ([3]; added with Rabbit IgG (0.00005 μg/mL)): 22.5 (1.7)
- Cell Index (+/- SEM) ([3]; added with Rabbit IgG (0.0005 μg/mL)): 22.4 (1.3)
- Cell Index (+/- SEM) ([3]; added with Rabbit IgG (0.005 μg/mL)): 21.0 (0.8)
- Cell Index (+/- SEM) ([3]; added with Rabbit IgG (0.05 μg/mL)): 21.3 (0.4)
- Cell Index (+/- SEM) ([3]; added with Rabbit IgG (0.5 μg/mL)): 21.1 (0.4)
- Cell Index (+/- SEM) ([3]; added with Rabbit IgG (5 μg/mL)): 24.2 (0.5)
- rescue of the effect of anti-DSG2 antibodies on cardiomyocyte sodium spike (in words) [4]: rescued; also recorded: completely blocks the effect of the anti-DSG2 antibodies on the sodium spike
